Our source for the Ka, ΔTm and Kd1 values is publication PMC7155420 (2020).

In test [1] the test system is r(CGGx6); GGx6 (RNA, repeat) GGAGAGGGUUUAAUCGGCGGCGGCGGCGGCGGUACGAAAGUACGGCGGCGGCGGCGGCGGAUUGGAUCCGCAAGG
Put plainly: ITC, two-mode fit. The conditions noted are these: K+ (10 mM potassium phosphate); 298 K; highest-affinity site. (ITC needs no label: the signal is the heat of the interaction.)

Test [2] deals with r(CGGx1); GGx1; (5'CGG/3'GCC) x 1 in Table S1 (RNA, mismatch bulge abasic) GGAGAGGGUUUAAUCGGUACGAAAGUACGGAUUGGAUCCGCAAGG
Put plainly: CD melting, 267 nm. The conditions noted are these: K+ (50 mM KCl, 10 mM potassium phosphate); 10 µM RNA; drug/nucleic acid ratio up to 2.0; 1 °C/min; per base.

Test [3] concerns r(CGGx6); GGx6 (RNA, repeat) GGAGAGGGUUUAAUCGGCGGCGGCGGCGGCGGUACGAAAGUACGGCGGCGGCGGCGGCGGAUUGGAUCCGCAAGG
Nature of the test: CD melting, 267 nm. The conditions noted are these: K+ (50 mM KCl, 10 mM potassium phosphate); 10 µM RNA; drug/nucleic acid ratio up to 2.0; 1 °C/min; per base.

In test [4] the test system is r(CGGx1); GGx1; (5'CGG/3'GCC) x 1 in Table S1 (RNA, mismatch bulge abasic) GGAGAGGGUUUAAUCGGUACGAAAGUACGGAUUGGAUCCGCAAGG
Nature of the test: fluorescence titration (curcumin fluorescence), two-mode fit. The conditions noted are these: 50 mM KCl (general buffer); 10 mM phosphate, pH 7.0, 25 °C; stronger of two sites.

Test [5] has as its system r(CGGx6); GGx6 (RNA, repeat) GGAGAGGGUUUAAUCGGCGGCGGCGGCGGCGGUACGAAAGUACGGCGGCGGCGGCGGCGGAUUGGAUCCGCAAGG
The description is as above. The conditions noted are these: 50 mM KCl (general buffer); 10 mM phosphate, pH 7.0, 25 °C; stronger of two sites.

The term ΔTm denotes the shift of the melting midpoint relative to a reference. `COc1cc(/C=C/C(=O)CC(=O)/C=C/c2ccc(O)c(OC)c2)ccc1O`: the Ka in test [1] is 1.7 × 10^6 M^–1. Further, the ΔTm in test [2] is 1.49 °C; in test [3], 3.48 °C. Further, the Kd1 in test [4] is given as 0.12 ± 0.02 µM; in test [5] it was 0.092 ± 0.004 µM.
